Test results taken from US20230381139A1, “METHODS OF TREATING AND/OR PREVENTING ALZHEIMER’S DISEASE WITH R-CARVEDILOL” (priority 2020, published 2023).

What was measured:
[1] = tested on: RyR2-mediated Ca2+ release; assay: Ex vivo two-photon Ca2+ imaging of caffeine-induced Ca2+ release in CA1 neurons of brain slices from treated 5×FAD+/− mice; parameters: species or system mouse; settings: CA1 pyramidal neurons in brain slices of 4-5 months old 5×FAD+/− mice treated for 1 month; caffeine 40 mM; vs DMSO-treated
Aβ = Aβ accumulation (immunohistochemical staining and immunoblotting) in 5×FAD+/− mice; assay type: in vivo, mouse; settings: 5×FAD+/− mice 3-4, 4-5 and 6-7 months old after 1-month treatment with 3.2 mg/kg/day; vs DMSO
Method: (§1) Adult genetically engineered mice, 5×FAD^+/− (Oakley et al., 2006), RyR2-E4872Q^+/− (EQ^+/−) (Chen et al., 2014), 5×FAD^+/−/RyR2-E4872Q^+/− (5×FAD^+/−/EQ^+/−), and wildtype (WT) littermates of both sexes were used. R-carvedilol (R-CV) (at doses of 0.8, 1.6 or 3.2 mg/kg/day), racemic carvedilol (3.2 mg/kg/day), and vehicle control (DMSO) were delivered to 5×FAD^+/− mice in drinking water for one month, starting at different ages before (2-3 months old) or after (3-4 months old) the occurrence of AD pathologies (Oakley et al., 2006). To assess the effects of genetically and pharmacologically limiting RyR2 open time on the prevention and rescue of AD deficits in different stages (early, moderate, and late) of AD progression, animals at different ages (from 2-15 months) were used. As reported (Oakley et al., 2006), there was an age-dependence of AD progression in the 5×FAD^+/− mice. No sex-dependent differences in AD progression in these mice was observed. For 2-photon Ca^2+ imaging experiments, 5×FAD, RyR2 WT, and RyR2 mutant mice were cross-bred with the heterozygous Thy1-GCaMP6f transgenic mice (Chen et al., 2012; Chen et al., 2013) (GP5.17, JAX 025393) to express the GCaMP6f Ca^2+ sensing probe (driven by the Thy1 promotor) in hippocampal neurons in each of the genotypes used.
Immunoblotting analysis was carried out using the method described previously (Rosen et al., 2010). […]

[2] = tested on: subiculum pyramidal neurons of 5×FAD+/− mice; assay: Nissl staining, neuronal cell loss in 5×FAD+/− mice; assay type: in vivo, mouse; settings: 6-7 months old 5×FAD+/− mice, pre-treatment 3.2 mg/kg/day for 1 month; vs DMSO
Method: as §1, with “genotypes used. […]” for “genotypes used.”

Aβ plaques = Aβ plaques (immunohistochemical staining) in 3×TG+/− mice; assay type: in vivo, mouse; settings: 12-15 months old 3×TG+/− mice, 3.2 mg/kg/day for one month; vs DMSO
Method: Genetically engineered mice of 12-15 months old, 3×TG+/− (Oddo et al., 2003), RyR2-E4872Q+/− (EQ+/−)(Chen et al., 2014), 3×TG+/−/RyR2-E48720+/− (3×TG+/−/EQ+/−), and WT littermates of both sexes were used. Sex differences, which may produce biological variables, were not investigated in this study. R-carvedilol (R-CV) (3.2 mg/kg/day) and vehicle control (DMSO) were delivered to 3×TG+/− mice in drinking water for one month. As shown previously, only heterozygous RyR2-E4872Q+/− mutant mice were produced as homozygous E4872Q+/+mutation is embryonic lethal (Chen et al., 2014). Functional RyR2s are tetrameric channels formed by 4 RyR2 monomers. The heterozygous E4872Q+/− mutant mice (harboring one WT allele and one E4872Q mutant allele) will produce a mixture of homo- and hetero-tetrameric channels that contain the WT, E48720 mutant, or both WT/E4872Q mutant monomers. Thus, the RyR2-E4872Q mutation can exert its negative impact not only on the function of the E4872Q homo-tetramers, but also on the function of the WT monomer in the WT/E4872Q hetero-tetrameric channels.
Mice of different ages and genotypes were anesthetized and transcardially perfused with 10% neutral buffered formalin (NBF). Whole brains were removed and post-fixed in NBF for at least 24 h. The fixed brains were then embedded in paraffin after dehydration and diaphanization. […]

Q: How did the “Caffeine-induced Ca2+ release” value [1] turn out when `COc1ccccc1OCCNC[C@@H](O)COc1cccc2[nH]c3ccccc3c12` [R-carvedilol, R-(+)-carvedilol] was run?
A: The value was “markedly reduced”.

Q: What about the “Aβ accumulation (plaques, total Aβ and Aβ (1-42) levels)” value (Aβ) of the same compound?
A: The value was “without affecting”.

Q: And the “subiculum neuronal cell loss” value [2]?
A: The value was “protected against”.

Q: And the “area of Aβ plaques in the hippocampal region” value (Aβ plaques)?
A: Its value is “no significant difference”.

Q: And the “number of Aβ plaques in the hippocampal region” value (Aβ plaques)?
A: The value was “no significant difference”.
